According to patent EP4772500A1, “NOVEL ISOXAZOLE COMPOUND AS TM4SF5-SPECIFIC INHIBITOR AND USE THEREOF” (Seoul National University R&DB Foundation, priority 2023, dated 2025):

Assays:
[1] = test system: TM4SF5-expressing cells (SNU449T7); assay: 2D cell growth/proliferation; assay type: cell-based, human; settings: 2D environment, drug every 24 hours (FIG. 3a)
Procedure: The drugs treated were the positive control drug TSAHC or the ST-1-025 isoxazole compound at the given concentrations. From the time of starting culture (0 day), (FIG. 3a) in the case of 2D culture, the number of cells was measured after treating with the drug every 24 hours, or (FIG. 3b) in a 3D environment, the proliferation of cells (spheres) was observed and photographed with an optical microscope on the 5th and 7th days after a single drug treatment at the start of culture.

[2] = biological target: T1, TM4SF5 (Homo sapiens, UniProt O14894); assay: TM4SF5 expression-dependent cell line models (summary statement); assay type: cell-based; design: expressed in transfected cells; captured on streptavidin agarose
T1 sequence (O14894 1-197): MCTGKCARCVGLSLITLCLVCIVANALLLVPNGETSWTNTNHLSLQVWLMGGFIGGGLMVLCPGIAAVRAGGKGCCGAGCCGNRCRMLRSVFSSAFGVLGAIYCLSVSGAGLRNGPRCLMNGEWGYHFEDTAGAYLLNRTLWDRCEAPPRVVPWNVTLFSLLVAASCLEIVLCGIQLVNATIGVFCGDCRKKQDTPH
From the text: In addition, the isoxazole compounds are capable of reversing both (i) an increase in PD-L1 expression and stabilization through direct binding mediated by TM4SF5 and (ii) induction of PD-1 expression in T cells, which suppresses T-cell activation and cancer cell killing functions.

[3] = test system: SNU761 cells expressing HA-TM4SF5 and FLAG-SLAMF7; assay: Immunofluorescence microscopy of SLAMF7 localization (Pearson's correlation); assay type: cell-based, human; settings: 2.5 µM, 24 h, vs DMSO (FIG. 15g-h)
Procedure: After putting a cover glass into each well of a 12-well plate, 10 µg/ml fibronectin (35600, BD Biosciences) diluted in PBS was added thereto and left at room temperature for 1 hour for coating. After washing three times with PBS, 20,000 cells were seeded on each cover glass and cultured in a cell incubator at 37°C for 16 hours. After cultivation, the various expression vectors mentioned above were transfected using Lipofectamine 3000 (L3000015, Invitrogen) and cultured for 24 hours, and then isoxazole was treated or not treated for 24 hours. The cells were fixed with cold 99% methanol at room temperature for 15 minutes and then blocked with 1% BSA in PBS for 1 hour. Primary antibodies, anti-FLAG (NB600-344, Novus Biologicals), anti-LAMP1 (#9091, Cell Signaling Tech,), anti-ZO-1 (402200, Invitrogen), anti-HA (901515, BioLegend), and anti-SLAMF7 (sc-390840, Santa Cruz Biotech.), were diluted in 1% BSA in PBS at a ratio of 1:500 and reacted at 4°C for 16 hours. The next day, the cover glasses were washed three times with PBS, and then fluorescence-conjugated secondary antibodies (Alexa Fluor 488 [goat: A11055 and mouse: A21202] and 555 [goat: A21432 and mouse: A31570] from Invitrogen) were diluted in 1% BSA in PBS at a ratio of 1:500 and reacted at room temperature for 1 hour. After washing three times with PBS, mounting was performed using ProLong™ Gold Antifade (P36930, Invitrogen). Cells were randomly photographed using a Nikon Eclipse Ti microscope with a C2 confocal system, and then the images were analyzed using NIS-Elements software (Nikon, Melville, NY, USA), and colocalization of SLAMF7 with LAMP1 or ZO-1 was calculated using Pearson's correlation coefficients. All images were photographed under the same software settings and equally corrected with Adobe Photoshop. Each dot in the graphs represents a result measured from a single cell.
SNU449-TM4SF5 cells overexpressing TM4SF5 were seeded on cover glasses pre-coated with collagen Type I (10 µg/ml), and 15 hour later, PD-L1-HA cDNA was transfected using Lipofectamine 3000 (Thermo Fisher). […] After reacting again with secondary antibodies at room temperature for 30 minutes (TRITC fluorescence for LAMP1, TRITC or Alexa Fluor® 488 fluorescence for TM4SF5, and FITC fluorescence for PD-L1 or SLAMF7), the expression levels, localizations, and colocalizations (indicated in yellow) of the fluorescently-stained factors were observed using a confocal fluorescence microscope.
(a) SNU761 cells expressing HA-EV or HA-TM4SF5 and FLAG-SLAMF7 were stored at 4°C and then cultured at 37°C for the given periods. […] The colocalization coefficient was calculated by Pearson's correlation (b). […]

In the case of `Cc1ccc(S(=O)(=O)Nc2ccc(C(=O)/C=C/c3ccc(O)cc3)cc2)cc1` [TSAHC, 4'-(p-toluenesulfonylamino)-4-hydroxychalcone, reference compound], the growth or proliferation [1] is reported as “decreased”.

For `COc1ccc(-c2cc(-c3ccc(N)cc3)no2)cc1` [ST-1-025, 4-(5-(4-methoxyphenyl)isoxazole-3-yl)aniline], the growth or proliferation [1] was “decreased”.

With `CC(=O)Nc1ccc(-c2cc(-c3ccc(O)cc3)no2)cc1` [ST-5-001, N-(4-(3-(4-hydroxyphenyl)isoxazole-5-yl)phenyl)acetamide] the “concentrations at which effects were exhibited” value [2] was no more than 1 µM, the “SLAMF7 colocalized at the lysosomal membrane” value [3] was “decreased” and the “SLAMF7 expression/localization at the plasma membrane (PM)” value [3] was “rather increased”.

`Cc1ccc(C(=O)Nc2ccc(-c3cc(-c4ccc(O)cc4)no3)cc2)cc1` [ST-5-002, N-(4-(3-(4-hydroxyphenyl)isoxazole-5-yl)phenyl)-4-methylbenzamide] was tested, and the “concentrations at which effects were exhibited” value [2] was no more than 1 µM, the “SLAMF7 colocalized at the lysosomal membrane” value [3] was “decreased” and the “SLAMF7 expression/localization at the plasma membrane (PM)” value [3] was “rather increased”.
